Data set [1] has as its system metastatic NSCLC with a genetic mutation. Kind of data set: Case report Example 1: metastatic NSCLC patient on daily oral erlotinib. Type of data set: in vivo, human. The note with it: person, 150 mg daily oral. The text has this: (§1) A person, whose child has a history of recurrent-remitting MS, developed severe back pain. […] After one year, their serum level of antithyroid peroxidase was reduced from 1719 to 366.

The next data set relates to mild plaque psoriasis. Kind of data set: Case report Example 1: psoriasis under erlotinib. It counts as in vivo, human. The note with it: person, 150 mg daily oral.
Excerpt: as §1

The subject of data set [2] is type 2 insulin requiring diabetes mellitus. Kind of data set: Case report Example 1: diabetes / insulin requirement under erlotinib. Type of data set: in vivo, human. The note with it: person, 150 mg daily oral.
Excerpt: as §1

The next data set has as its system Hashimoto's thyroiditis. Kind of data set: Case report Example 1: Hashimoto's thyroiditis, serum antithyroid peroxidase under erlotinib. It counts as in vivo, human. The note with it: person; 150 mg daily oral; after one year; reduced from 1719 before treatment.
Excerpt: as §1

Data set [3] deals with NSCLC with a genetic mutation. Kind of data set: Case report Example 2: NSCLC in MS patient on erlotinib. Type of data set: in vivo, human. The note with it: person; oral 150 mg daily; after six months. The protocol:
(§2) They were placed on interferon β-1a. […], they developed weakness in their lower extremities and was switched to natalizumab. […] […], independent of their MS, they developed NSCLC with a genetic mutation. Natalizumab was discontinued and erlotinib was initiated at an oral dose of 150 mg daily. […] Brain MRIs with contrast two months prior to starting erlotinib, immediately prior to starting erlotinib, and after three and six months on erlotinib are unchanged.

For the next data set, the system named is MS. Kind of data set: Case report Example 2: course of MS (symptoms, brain MRI). It counts as in vivo, human.
Excerpt: A person was well, when they developed numbness and tingling in their lower extremities. A magnetic resonance imaging (MRI) of the brain, along with spinal fluid findings, were consistent with MS. […] From then, they were asymptomatic except for three exacerbations which also responded to intravenous methyl prednisone. They took no other medications for MS.
as §2

Another data set has as its system rheumatoid arthritis. Kind of data set: Example 3: patient with rheumatoid arthritis. It counts as in vivo, human. The note with it: 150 mg daily for several weeks.
A further data set has as its system Crohn's disease. Kind of data set: Example 4: patient with Crohn's disease. The note with it: 150 mg daily for several weeks. Type of data set: in vivo, human.
The next data set concerns multiple sclerosis. Kind of data set: Example 5: group of patients with multiple sclerosis, placebo controlled. Type of data set: in vivo, human. The note with it: erlotinib 150, gefitinib 250, icotinib 300 mg daily for several weeks, versus placebo. The protocol: A group of patients with multiple sclerosis is identified. The patients are administered erlotinib (150 mg daily), gefitinib (250 mg daily), icotinib (300 mg daily), or placebo in for several weeks. […] Following clinical improvement, the dose of erlotinib, gefitinb, or icotinib is reduced to a maintenance dose as low as 25 mg, 50 mg, or 75 mg daily, respectively.

The test system of another data set is insulin resistance. Kind of data set: Example 6: group of patients with insulin resistance, placebo controlled. It counts as in vivo, human. The note with it: erlotinib 150, gefitinib 250, icotinib 300 mg daily for several weeks, versus placebo. As to the method: A group of patients with insulin resistance is identified. The patients are administered erlotinib (150 mg daily), gefitinib (250 mg daily), icotinib (300 mg daily), or placebo in for several weeks. […] Following clinical improvement, the dose of erlotinib, gefitinb, or icotinib is reduced to a maintenance dose as low as 25 mg, 50 mg, or 75 mg daily, respectively.

A further data set deals with psoriasis. Kind of data set: Example 7: group of patients with psoriasis, placebo controlled. Type of data set: in vivo, human. The note with it: erlotinib 150, gefitinib 250, icotinib 300 mg daily for several weeks, versus placebo. As to the method:
A group of patients with psoriasis is identified. The patients are administered erlotinib (150 mg daily), gefitinib (250 mg daily), icotinib (300 mg daily), or placebo in for several weeks. […] Following clinical improvement, the dose of erlotinib, gefitinb, or icotinib is reduced to a maintenance dose as low as 25 mg, 50 mg, or 75 mg daily, respectively.

For data set [4] the following is noted: on the face, scalp, neck, and back; cited from earlier work.

Description for Crohn's disease: A patient is diagnosed with Crohn's disease. Erlotinib is administered in a dose of 150 mg daily for several weeks.
Description for rheumatoid arthritis: A patient is diagnosed with rheumatoid arthritis. Erlotinib is administered in a dose of 150 mg daily for several weeks.

On to `C#Cc1cccc(Nc2ncnc3cc(OCCOC)c(OCCOC)cc23)c1` [erlotinib], for which, in data set [1] (after seven months), the “evidence of NSCLC” value is “no evidence of NSCLC or psoriasis”. In addition, the severe back pain result in data set [1] (three weeks after starting) was “their pain abated”. For the same compound, the evidence of psoriasis entry in the data set with mild plaque psoriasis (after seven months) is given as “no evidence of NSCLC or psoriasis”. Also, the psoriasis entry in the data set with mild plaque psoriasis (three weeks after starting) is given as “their psoriasis cleared”. The “insulin requirement / new medication to control diabetes” value in [2] (after seven months) was “remains off of insulin and has not required any new medication to control their diabetes”. Moreover, the insulin requirement result in [2] (after ten weeks) is “no longer required insulin”. Also, the “serum level of antithyroid peroxidase” value in the data set on Hashimoto's thyroiditis was determined as 366. Moreover, in [3], the cancer status entry was “total remission”. Besides, in the data set with MS (person with MS, oral 150 mg daily, after three and six months), the “enhancing lesions on brain MRI” value is given as “no enhancing lesions”. In addition, the “brain MRIs with contrast” value in the data set with MS (person with MS, oral 150 mg daily, after three and six months versus before starting) was “unchanged”. The clinical outcome with rheumatoid arthritis, in the data set on Crohn's disease, in the data set on multiple sclerosis, in the data set on insulin resistance and in the data set with psoriasis was “Clinical improvement is seen” each time. Besides, in data set [4], the “most common adverse effect” value is given as “mild to moderate reversible papulopustular skin eruption”.
Take `COc1cc2ncnc(Nc3ccc(F)c(Cl)c3)c2cc1OCCCN1CCOCC1` [gefitinib]: the clinical outcome in the data set with multiple sclerosis, in the data set on insulin resistance and in the data set on psoriasis was “Clinical improvement is seen” in each case.
Take `C#Cc1cccc(Nc2ncnc3cc4c(cc23)OCCOCCOCCO4)c1` [icotinib]: the clinical outcome in the data set with multiple sclerosis, in the data set on insulin resistance and in the data set with psoriasis was “Clinical improvement is seen” throughout.
methyl prednisone: in the data set on MS (patient one, intravenous), the “response of MS at first presentation” value is listed as “achieved total remission”. In addition, the “response of three MS exacerbations” value with MS (patient, intravenous) is “responded”.
Turning to natalizumab, the MS symptoms entry with MS (patient, since the switch) was “asymptomatic since that time”.

The record behind these values is patent publication US20130281448A1, “SMALL MOLECULE COMPOUNDS FOR TARGETING INFLAMMATORY CONDITIONS” (priority 2012, published 2013).
